Earlier results as cited in patent publication US20260200930A1, “PRODRUGS OF TEMOZOLOMIDE TO FACILITATE DELIVERY INTO BRAIN TUMORS” (H. LEE MOFFITT CANCER CENTER AND RESEARCH INSTITUTE, INC., priority 2022, published 2026).

What was measured:
[1] = oral chemotherapy; % of the highest plasma concentration

- solubility in water: insoluble in water
- brain concentration relative to highest plasma concentration that can safely be obtained [1]: about 40%
Structure (SMILES): Cn1nnc2c(C(N)=O)ncn2c1=O [TMZ, temozolomide]
